Assays:
[1] = system: Neonatal Rat Ventricular Myocytes (NRVMs); experiment: Myocyte proliferation assay (EdU assay) in neonatal rat ventricular myocytes; format: cell-based; conditions: growth relative to blank myocyte growth without compound added; for Avg 1 uM (average myocyte proliferation): compound 1 uM; for Avg 3 uM (average myocyte proliferation): compound 3 uM
In short: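 After 36 h compound exposure (1, 3 or 10 uM in 6% FBS/ITS DMEM, following 24 h low-serum culture), NRVMs were pulsed with EdU for 12 h. Proliferation scored by automated confocal imaging of EdU click chemistry, ab8295 immunostaining and DAPI nuclei in fixed cultures.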

[2] = target: T1, human DYRK1A (Homo sapiens, UniProt Q13627); experiment: DYRK1A enzyme assay (ADP-Glo); format: biochemical; conditions: ADP-Glo, ATP 60 μM; read-out: DYRK1A IC50
T1 construct: Recombinant full-length DYRK1A (expressed in E. Coli cells with an N-terminal GST tag); GST (N); purchased SignalChem D09-10G; host or cells: E. coli
In short: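 ADP formed is quantified by luciferase luminescence (ADP-Glo) after a 60-minute, 25 °C reaction with 60 μM ATP and 20 μM DYRKtide peptide. Enzyme: 3 nM recombinant N-terminal GST DYRK1A, given 30 min compound preincubation in Tris pH 7.5/MgCl2/BSA/DTT buffer; % inhibition versus plate controls, four-parameter IC50.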

IC50 [2] [µM]	SMILES	Avg 1 uM (average myocyte proliferation) [1]	Avg 3 uM (average myocyte proliferation) [1]
1 to 10	O=C1NC(Nc2ccc3ncsc3c2)=NC1Cc1ccc2ncsc2c1 (stereo not drawn) [Example 102, 2-(benzo[d]thiazol-6-ylamino)-5-(benzo[d]thiazol-6-ylmethyl)-3,5-dihydro-4H-imidazol-4-one]	* (<10% growth relative to blank myocyte growth without compound added.)	** (10%-50%)
< 0.1	NC1=N/C(=C\c2ccc3ncsc3c2)C(=O)N1 [Example 103, (Z)-2-amino-5-(benzo[d]thiazol-6-ylmethylene)-3,5-dihydro-4H-imidazol-4-one]	** (10%-50%)	** (10%-50%)
1 to 10	O=C1NC(Nc2ccc3nc(Nc4ccccc4)sc3c2)=N/C1=C\c1ccc2ncsc2c1 [Example 104, (Z)-5-(benzo[d]thiazol-6-ylmethylene)-2-((2-(phenylamino)benzo[d]thiazol-6-yl)amino)-3,5-dihydro-4H-imidazol-4-one]	* (<10% growth relative to blank myocyte growth without compound added.)	** (10%-50%)
> 10	O=C1NC(N(CC2CC2)c2ccc3ncsc3c2)=N/C1=C\c1ccc2ncsc2c1 [Example 105, (Z)-2-(benzo[d]thiazol-6-yl(cyclopropylmethyl)amino)-5-(benzo[d]thiazol-6-ylmethylene)-3,5-dihydro-4H-imidazol-4-one]	** (10%-50%)	** (10%-50%)

— US12643887B2, “Heterocyclic derivatives with cardiomyocyte proliferation activity for treatment of heart diseases” (Tongji University, priority 2019, dated 2026)
